Results from patent US20260242478A1, “ANTIBODIES FOR TARGETING PSMA AND CD28 AND USES THEREOF” (Janux Therapeutics, Inc., priority 2023, published 2026).
Where no end group is shown, it is not given here.

Test system: PSMA Fab
Experiment: Phage binding ELISA, PSMA Fab, with or without PSMA antigen (peptide-179 and peptide-180 libraries)
Conditions: peptide-180 library clonal phage; background (no Fab)
Method: (§1) Once the phage optimization libraries were completed, phage libraries were bio-panned using PSMA Fab loaded beads. Multiple rounds of panning were performed where bacteriophage was allowed to bind to PSMA Fab loaded beads. washed. eluted, and amplified. After panning, phage infected bacteria were plated out and colonies picked into 96 well blocks. Clonal phage was then amplified and separated from bacterial cells via centrifugation. Phage containing supemnatants were tested in binding ELISAs against PSMA Fab coated plates in the presence or absence of saturating concentrations of PSMA antigen. Phage able to bind PSMA Fab were selected for sequence analysis if the binding signal was reduced in the presence of PSMA.
(§2) Clonal phage were harvested as crude supernatants and screened via standard ELISAs. Briefly, biotinylated PSMA Fab was captured on neutravidin coated plates. Prior to the addition of clonal phage. wells were incubated with blocking buffer and PSMA antigen or blocking buffer alone. Without washing or aspirating, clonal phage supernatants were then added to the wells and incubated for a short time. Wells were then washed followed by detection of bound phage using a horse radish conjugated anti-M13 antibody. Clonal phage of interest were then sent for sequence analysis.
as §1, with “beads, washed,” for “beads. washed.”, “supernatants” for “supemnatants”

Chain of PSMA Fab (as listed by the source): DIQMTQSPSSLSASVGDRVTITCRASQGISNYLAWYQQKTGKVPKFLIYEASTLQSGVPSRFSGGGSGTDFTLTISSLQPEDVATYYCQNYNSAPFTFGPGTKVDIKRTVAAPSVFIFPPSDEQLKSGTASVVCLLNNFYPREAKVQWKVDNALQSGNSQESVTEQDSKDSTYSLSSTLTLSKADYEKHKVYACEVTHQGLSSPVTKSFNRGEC
Chain of PSMA Fab (as listed by the source): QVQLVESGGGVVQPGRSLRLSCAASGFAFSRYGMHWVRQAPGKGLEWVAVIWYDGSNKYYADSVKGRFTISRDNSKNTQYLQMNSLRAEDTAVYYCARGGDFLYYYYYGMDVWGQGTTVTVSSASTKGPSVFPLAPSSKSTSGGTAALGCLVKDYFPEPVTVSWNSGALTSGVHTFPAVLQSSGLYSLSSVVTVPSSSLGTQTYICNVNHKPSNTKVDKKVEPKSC

Substance | Phage binding ELISA Background signal
Phage-2805 (MMHWCTPPWMCEFS) | 0.0597
Phage-2814 (PMKWCTPPWMCSYS) | 0.0793
Phage-2813 (FSKLCTPPWMCSVS) | 0.0586
Phage-2810 (MDIWCKPRWMCEEY) | 0.0644
Phage-2848 (VMTVCKPAWMCTGF; not fully specified; cysteine pairing not given here) | 0.1338
Phage-2867 (VLPMCSPPWMCIGL) | 0.0631
Phage-2796 (LNNWCTPAWMCVGY) | 0.0697
Phage-2788 (SVKWCTPSWMCTEW) | 0.0817
Phage-2839 (DSHWCMPVWMCMGL; not fully specified; cysteine pairing not given here) | 0.0737
Phage-2846 (WEVRCVPEWMCVGF; not fully specified; cysteine pairing not given here) | 0.0615
Phage-2861 (WDRLCIPAWMCSGF; not fully specified; cysteine pairing not given here) | 0.0903
Phage-2857 (LERACVPSWMCTGF; not fully specified; cysteine pairing not given here) | 0.0649
Phage-2854 (VHIMCKPAWMCLGF; not fully specified; cysteine pairing not given here) | 0.0917
Phage-2856 (VQRMCEPSWMCFGF; not fully specified; cysteine pairing not given here) | 0.0631
Phage-2789 (VGKWCTPEWMCSGF) | 0.058
Phage-2787 (LWKSCTPEWMCAEW) | 0.0888
Phage-2865 (MSPLCKPVWMCAGF) | 0.0586
Phage-2855 (WEMKCIPEWMCRGF; cysteine pairing not given here; also: large carriers left off) | 0.0794
Phage-2800 (DYKWCTPPWMCDSR) | 0.0795
Phage-2812 (VGPWCIPDWMCDVV) | 0.0572
Phage-2859 (WEFVCKPEWMCTGF; not fully specified; cysteine pairing not given here) | 0.0551

Substance | Phage binding ELISA Background signal
Phage-2816 (GDKWCKPSWMCDFF) | 0.0602
Phage-2793 (VTNWCTPPWMCEML) | 0.0676
Phage-2798 (HFKWCIPPWMCLEI) | 0.0798
Phage-2799 (ESKWCVPTWMCAEN) | 0.0516
Phage-2858 (TQAMCKPAWMCQGF; not fully specified; cysteine pairing not given here) | 0.0585
Phage-2863 (FNVMCRPAWMCDFL; not fully specified; cysteine pairing not given here) | 0.1545
Phage-2866 (TSPACVPSWMCVGF) | 0.0552
Phage-2817 (EAKWCTPPWMCSLV) | 0.0615
Phage-2844 (VVAMCKPAWMCAGL; not fully specified; cysteine pairing not given here) | 0.0591
Phage-2794 (TEKWCIPQWMCVRT) | 0.056
Phage-2842 (PEVMCRPVWMCLGF; not fully specified; cysteine pairing not given here) | 0.0609
Phage-2807 (WENWCIPQWMCGTA) | 0.1629
Phage-2808 (MEKWCTPRWMCVGM) | 0.0767
Phage-2838 (HPKLCTPEWMCVIQ; not fully specified; cysteine pairing not given here) | 0.0666
Phage-2851 (DMRLCVPEWMCLGL; not fully specified; cysteine pairing not given here) | 0.0889
Phage-2843 (MLPICKPDWMCAGF; not fully specified; cysteine pairing not given here) | 0.0724
Phage-2869 (WPQLCVPMWMCAGL) | 0.1456
Phage-2801 (SDNWCKPEWMCVGH) | 0.0738
Phage-2841 (ESIRCTPAWMCVEM; not fully specified; cysteine pairing not given here) | 0.0625
Phage-2853 (MLPLCVPAWMCSGF; not fully specified; cysteine pairing not given here) | 0.061
Phage-2845 (WDMLCRPAWMCEGF; not fully specified; cysteine pairing not given here) | 0.0711

Test system: anti-CD28 scFv
Sequence (as listed by the source): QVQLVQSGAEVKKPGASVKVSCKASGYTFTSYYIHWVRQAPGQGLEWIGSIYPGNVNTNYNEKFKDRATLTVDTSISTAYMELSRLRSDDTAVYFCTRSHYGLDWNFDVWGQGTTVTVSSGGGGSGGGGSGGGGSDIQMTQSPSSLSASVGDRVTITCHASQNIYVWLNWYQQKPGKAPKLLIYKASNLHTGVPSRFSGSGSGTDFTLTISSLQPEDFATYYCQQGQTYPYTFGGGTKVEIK
Experiment: Panning ELISA of clonal phage, anti-CD28 scFv, with or without CD28 soluble protein (Peptide-9 library)
Format: binding
Conditions: Peptide-9 library, background (no anti-CD28 scFv)
Method: as §2, with “enzyme linked immunosorbent assays (ELISAs). […]” for “ELISAs. Briefly, biotinylated PSMA Fab was captured on neutravidin coated plates.”, “phage,” for “phage.”, “CD28 soluble protein” for “PSMA antigen”, “radish peroxidase” for “radish”

Substance | Background signal
Phage-137 (MDWCPRYLWHECFH) | 0.101
Phage-118 (MDWCPRHLWDECFF) | 0.074
Phage-99 (MDWCPRYLWNMCFH) | 0.114
Phage-436 (MDWCPRDRWADCFN) | 0.063
Phage-121 (MDWCPRDLWHVCFF) | 0.068
Phage-47 (MAWCPVYLWHECFN; not fully specified; cysteine pairing not given here) | 0.094
Phage-55 (QDWCPRHMWSFCFH; not fully specified; cysteine pairing not given here) | 0.138
Phage-119 (MDWCPRYLWHMCYS) | 0.129
Phage-126 (MDWCPRFLWNECFN) | 0.072
Phage-43 (MDWCPRALWHECFY; not fully specified; cysteine pairing not given here) | 0.115
Phage-451 (MDWCPRFWWHECYA) | 0.246
Phage-56 (MHWCPMDQWSNCFN; left off: large carriers) | 0.062
Phage-110 (MDWCPRYLWDECFN) | 0.069
Phage-440 (MDWCPRDRWVDCFN) | 0.106

Same assay, conditions: background (no anti-CD28 scFv)

Substance | Background signal
Phage-294 (MDWCPRSLWDYCFA) | 0.115
Phage-306 (MDWCPRHLWNECFA) | 0.068
Phage-380 (MDYCPSYLWHECFA) | 0.065
Phage-269 (DSFCTWSAWQECGR; not fully specified; cysteine pairing not given here) | 0.072
Phage-357 (MDWCPRLLWHECFN) | 0.071
Phage-394 (MDWCPRYMWSDCFF) | 0.082
Phage-395 (MDWCPKDMWAECFN) | 0.083
Phage-276 (IDWCPKIHWDLCYF; not fully specified; cysteine pairing not given here) | 0.072
Phage-347 (MDWCPLFLWDQCFN) | 0.116
Phage-305 (MDWCPRDLWTECFS) | 0.080
Phage-318 (MDWCPMFLWDECFN) | 0.132
Phage-372 (MDWCPRYLWVDCFA) | 0.095
